Assay results: patent publication US7435847B2, “Preparation of solid ammonium glyphosate using organic solvent in extraction” (priority 2002, dated 2008)

Assays:
[1] = concentration of aqueous solutions of ammonium glyphosate salt at room temperature; type: physicochemical; conditions: water
Source text: Wherein m is a positive integer from 1 to 3, the ammonium cation may link to the hydroxyl which is bonded with a carbonyl or a phosphoryl. As for the single molecule, m equals 1-3. The generally used ammonium glyphosate salt is a mono-ammonium salt, namely, m equals 1. However, it may not be deemed simply that the ammonium glyphosate salt obtained in practical production has m just equal to a positive integer, but a value in the range of 0.8-1.3. These substances have very high solubility in water and the concentration of their aqueous solutions may be more than 20% at room temperature. However, they have very low solubility in such organic solvents that are completely miscible with any proportion of water or have a relatively high solubility in water. Thus, after the reaction is ended, such organic solvent(s) is(are) added to the reaction solution to form a homogeneous solution with water in the system, thereby substantially decreasing the solubility of the ammonium glyphosate salt therein and crystallizing the salt out. Such solvents may include, or may be, alcohols and acetals, etc. or a mixture of two or more solvents. The alcohols may include monobase alcohols having 1-4 carbon atoms. It is preferred to use methanol, ethanol, propanol, butanol and methylal in terms of cost effective, which can be used alone or as a mixture of thereof. […]

[2] = saturation concentrations of ammonium glyphosate in different aqueous methanol solutions; type: physicochemical; conditions: 30° C.
Source text: The amount of gaseous ammonia introduced is 1.01-1.5 times by mole as that of glyphosate added. When the ammonia is not enough, the reaction will not be carried out completely to cause the product having relatively more glyphosate, and thus a part of the water-soluble solid ammonium glyphosate may not be dissolved due to very low the solubility of glyphosate in water. If the ammonia is introduced in excess, relatively more free ammonia will remain in the system, thereby the ammonia will escape in subsequent processes to result in the environmental pollution. A relatively simple method for judging the end point of the reaction is to measure the pH of the reaction system. The inventor believes that the pH should be kept at 5-8. The solubility of ammonium glyphosate varies with the concentration of the aqueous methanol solution, the higher the concentration of aqueous methanol solution is, the lower the solubility of ammonium glyphosate is. The saturation concentrations of ammonium glyphosate in different concentrations of the aqueous methanol solution at 30° C. are listed in Table 1.

[3] = 25° C.; cited from earlier work

Row | Compound | concentration of aqueous solution [1] | Saturation concentration (w/w) % ([2]; content of methanol 5 (w/w) %, aqueous methanol solution) | Saturation concentration (w/w) % ([2]; content of methanol 20 (w/w) %, aqueous methanol solution) | Saturation concentration (w/w) % ([2]; content of methanol 40 (w/w) %, aqueous methanol solution) | Saturation concentration (w/w) % ([2]; content of methanol 60 (w/w) %, aqueous methanol solution) | Saturation concentration (w/w) % ([2]; content of methanol 80 (w/w) %, aqueous methanol solution) | Saturation concentration (w/w) % ([2]; content of methanol 100 (w/w) %) | solubility of glyphosate in water [3] [g per 100 g water]
1 | N.O=C(O)CNCP(=O)(O)O [ammonium glyphosate] | more than 20% | 18.2 (w/w) % | 8.9 (w/w) % | 4.3 (w/w) % | 1.5 (w/w) % | 0.9 (w/w) % | 0.6 (w/w) % | –
2 | O=C(O)CNCP(=O)(O)O [glyphosate, N-phosphonomethyl glycine] | – | – | – | – | – | – | – | 1.2
